In patent publication US10538528B2, “5H-pyrrolo[2,3-D]pyrimidin-6(7H)-one derivative” (Taiho Pharmaceutical Co., Ltd., priority 2016, dated 2020):

How the values were obtained:
[1] = test system: RKO cells (human colon cancer cell lines); assay: Cell growth inhibition study using RKO cells (CellTiter-Glo); assay type: cell-based; details: 72 h, 3 days
Description: The in vitro cell growth inhibition study using RKO cells (human colon cancer cell lines) was conducted as described below.
RKO cells (ATCC, Cat#: CRL-2577) cultured in a MEM medium (GIBCO, Cat#:10370-088) supplemented with 10% FBS, 1 mM L-glutamine (GIBCO, Cat#:25030), and 1 mM sodium pyruvate (GIBCO, Cat#:11360) were seeded in a 96-well flat bottom microplate (COSTAR, Cat#:3904) at 2×10^3 cells (150 μl) and cultured in an incubator containing 5% CO2 at 37° C. for 1 day. The compound according to the present invention subjected to serial dilution with dimethyl sulfoxide or dimethyl sulfoxide alone was added to a MEM medium containing 10% FBS, 1 mM L-glutamine, and 1 mM sodium pyruvate. The resultant medium containing the compound or dimethyl sulfoxide alone was added to the RKO cells in the culture plate by 50 μl/well at the final concentration of the compound to 10, 3, 1, 0.3, 0.1, 0.03, 0.01, 0.003, and 0 μM, respectively. Another RKO cell culture plate separately prepared was allowed to stand at room temperature for 30 minutes, then 100 μl of the medium was removed, and added 50 μl of CellTiter-Glo® 2.0 Assay (Promega, Cat#:G9242) to each well. After the plates were placed in the dark for 10 minutes, the luminescence level derived from viable cells in each well was measured by the Multimode Plate Reader (PerkinElmer, EnSpire). The cells treated with the compound or dimethyl sulfoxide alone were cultured at 37° C. in an incubator containing 5% CO2 for an additional 3 days. After incubation, the culture plate was placed at room temperature for 30 minutes, and 150 μl of the supernatant was removed from each well to adjust the amount of the remaining cell culture solution to 50 μl each. To 50 μl of the remaining cell culture solution, the equivalent amount of CellTiter-Glo® 2.0 Assay was added. After the cell culture plate was placed in the dark for 10 minutes, the luminescence level derived from viable cells in each well was assayed with the use of the Multimode Plate Reader. The cell growth rate was calculated by the formulae shown below and the concentration at which the cell growth rate became 50%; i.e., the concentration of the compound according to the present invention at which cell growth would be inhibited by 50% was determined (GI50 (nM)). Cell growth rate (%)=(T−C0)/(C−C0)×100, provided that T is equal to or greater than C0(T≥C0) Cell growth rate (%)=(T−C0)/C0×100, provided that T is less than C0(T<C0) C0: Luminescence level in each well when the compound is added (count per second) C: Luminescence level in each well when dimethyl sulfoxide is added alone (count per second) T: Luminescence level in each well when the test compound is added (count per second)
As control compounds, conventional Comparative Example A (WO 2010/056563 (Example 31)) and Comparative Example B having inhibitory activity against Akt were used.
The GI50 levels of representative compounds according to the present invention and reference compounds in RKO cells were evaluated, and the results are shown in Table 5.

[2] = test system: HEC-6 cells (endometrial cancer cell lines); assay: Cell growth suppression test on HEC-6 cells (CellTiter-Glo); assay type: cell-based; details: 72 h, read-out: Cell growth inhibition GI50, heading: Cell growth inhibition GI50, 3 days, table head prints μM, method says GI50 (nM)
Description: The in vitro cell growth suppression test on HEC-6 cells (endometrial cancer cell lines) was performed under the conditions described below.
HEC-6 cells (Health Science Research Resources Bank, Cell Number: JCRB1118) cultured in a MEM medium containing 15% FBS (GIBCO, Cat#: 10370) were seeded on a 384-well flat bottom microplate (CORNING, Cat#: 3571) at 500 cells/well (20 μl) and cultured in an incubator containing 5% carbon dioxide at 37° C. for 1 day. The compound according to the present invention subjected to serial dilution with dimethyl sulfoxide or dimethyl sulfoxide alone was added to a MEM medium containing 15% FBS. […] Thereafter, the luminescence level derived from viable cells in each well was assayed with the use of the Multimode Plate Reader (PerkinElmer, EnVision). […] Thereafter, the luminescence level derived from viable cells in each well was assayed with the use of the Multimode Plate Reader. […] Cell growth rate (%)=(T−C0)/(C−C0)×100, provided that T is equal to or greater than C0(T≥C0) Cell growth rate (%)=(T−C0)/C0×100, provided that T is less than C0(T<C0) C0: Luminescence level in each well when the compound is added (count per second) C: Luminescence level in each well when dimethyl sulfoxide is added alone (count per second) T: Luminescence level in each well when the test compound is added (count per second) […]

[3] = molecular target: human Akt1 (Homo sapiens (Human), UniProt P31749); assay: Inhibitory effects on Akt1 kinase activity (TR-FRET, biotinylated Crosstide); assay type: biochemical; details: Akt1, ATP 150 μM, pre-incubation 120 minutes at 25° C.; read-out: AKT inhibitory activity IC50
Sequence of human Akt1 (P31749 whole entry): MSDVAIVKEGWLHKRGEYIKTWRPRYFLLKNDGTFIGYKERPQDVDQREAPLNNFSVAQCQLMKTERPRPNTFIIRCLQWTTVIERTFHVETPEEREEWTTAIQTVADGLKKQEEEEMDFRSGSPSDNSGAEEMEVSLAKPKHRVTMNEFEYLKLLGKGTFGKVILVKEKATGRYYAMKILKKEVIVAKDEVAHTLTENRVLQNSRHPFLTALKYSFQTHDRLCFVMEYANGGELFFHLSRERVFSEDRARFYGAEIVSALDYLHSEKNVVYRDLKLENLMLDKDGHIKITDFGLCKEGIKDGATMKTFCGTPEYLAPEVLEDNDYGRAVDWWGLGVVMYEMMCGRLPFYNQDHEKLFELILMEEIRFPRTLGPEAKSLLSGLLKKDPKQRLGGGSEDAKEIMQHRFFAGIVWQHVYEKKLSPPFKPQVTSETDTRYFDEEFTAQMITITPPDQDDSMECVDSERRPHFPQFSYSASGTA
In short: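 Middle T-tagged human Akt1 from Sf9 cells, PDK1-activated, pre-incubated with compound 120 min at 25 °C (Tris pH 7.5); then 500 nM biotin-Crosstide, 10 mM MgCl2, 150 μM ATP for 60 min at 25 °C. Eu-anti-phospho-Crosstide/APC-SA TR-FRET 665/620 ratio; IC50 as 50% phosphorylation inhibition.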

| Compound | GI50 [1] [µM] | GI50 [2] [µM] | IC50 [3] [µM] |
| --- | --- | --- | --- |
| CN(C)CCn1cc(-c2ccc(F)c(C(F)(F)F)c2)nc1C1CCN(c2ncnc3c2C(C)(C)C(=O)N3)CC1 [Comparative Example A, reference compound] | 1.05 | 1.04 | – |
| CC(C)(C)NCCNc1cc(-c2cncc(F)c2)nc(C2CCN(c3ncnc4c3C(C)(C)C(=O)N4)CC2)c1 [Comparative Example B, 4-(4-(4-((2-(Tert-butylamino)ethyl)amino)-5′-fluoro-[2,3′-bipyridin]-6-yl)piperidin-1-yl)-5,5-dimethyl-5H-pyrrolo[2,3-d]pyrimidin-6(7H)-one, reference compound] | 2.64 | 2.92 | 0.657 |
